Structures are written as SMILES. Like-named read-outs stand apart in the source and are kept apart here. Marks after values point to notes of the source that are not given here.

Data set [1] concerns Leptosphaeria nodorum. As to the kind of experiment: Example K: Leptosphaeria nodorum test (wheat)/preventive. In kind it is in vivo. The conditions noted are these: 500 ppm of active ingredient, preventive, evaluated 8 days after inoculation. The method in brief: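 Young wheat plants sprayed preventively with compound in N,N-dimethylacetamide/alkylaryl polyglycol ether emulsifier diluted with water at the stated application rate. Once the coating dried, plants were inoculated with a Leptosphaeria nodorum spore suspension.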

In data set [2] the test system is Venturia inaequalis. As to the kind of experiment: Example O: Venturia test (apples)/preventive. In kind it is in vivo. The note with it: 100 ppm of active ingredient, preventive, evaluated 10 days after inoculation. Here is the method:
Solvent: 24.5 parts by weight of acetone • 24.5 parts by weight of dimethylacetamide Emulsifier: 1 part by weight of alkylaryl polyglycol ether To produce a suitable preparation of active compound, 1 part by weight of active compound is mixed with the stated amounts of solvent and emulsifier, and the concentrate is diluted with water to the desired concentration. To test for preventive activity, young plants are sprayed with the preparation of active compound at the stated rate of application.

Data set [3] has as its system Puccinia recondita. Nature of the data set: Example B: in vivo preventive test on Puccinia recondita (brown rust on wheat). The note with it: wheat plants, preventive spray, evaluated 11 days after inoculation. The protocol:
The young plants of wheat are treated by spraying the active ingredient prepared as described above. Control plants are treated only with an aqueous solution of acetone/Dimethyl sulfoxide/Tween®. After 24 hours, the plants are contaminated by spraying the leaves with an aqueous suspension of Puccinia recondita spores.

In data set [4] the test system is Fusarium culmorum. As to the kind of experiment: Example H: Fusarium culmorum-test (wheat)/curative. In kind it is in vivo. The conditions noted are these: 500 ppm of active ingredient, curative, evaluated 5 days after inoculation. Here is the method: Solvent: 49 parts by weight of N,N-dimethylacetamide
Emulsifier: 1 part by weight of alkylaryl polyglycol ether
To produce a suitable preparation of active compound, 1 part by weight of active compound or active compound combination is mixed with the stated amounts of solvent and emulsifier, and the concentrate is diluted with water to the desired concentration.
To test for curative activity, young plants are slightly injured by using a sandblast and afterwards they are sprayed with a conidia suspension of Fusarium culmorum and placed for 24 hours in a greenhouse under a translucent incubation cabinet at a temperature of approximately 22° C. and a relative atmospheric humidity of approximately 100% and are subsequently sprayed with the preparation of active compound at the stated rate of application.
After the spray coating has been dried, the plants remain in the greenhouse under translucent incubation cloches at a temperature of approximately 22° C. and a relative atmospheric humidity of approximately 100%.
The test is evaluated 5 days after the inoculation. 0% means an efficacy which corresponds to that of the untreated control, while an efficacy of 100% means that no disease is observed.

Data set [5] concerns Sphaerotheca fuliginea. As to the kind of experiment: Example E: in vivo preventive test on Sphaerotheca fuliginea (powdery mildew on cucurbits). The note with it: gherkin plants, preventive spray, evaluated 15 days after inoculation. Here is the method: The young plants of gherkin are treated by spraying the active ingredient prepared as described above. Control plants are treated only with an aqueous solution of acetone/Dimethyl sulfoxide/Tween®. After 24 hours, the plants are contaminated by spraying the leaves with an aqueous suspension of Sphaerotheca fuliginea spores.

In data set [6] the test system is Fusarium graminearum. In kind it is in vivo. The conditions noted are these: 500 ppm of active ingredient; barley, preventive; evaluated 5 days after inoculation.
For data set [7], the system named is Fusarium nivale (var. majus). Nature of the data set: Example J: Fusarium nivale (var. majus)-test (wheat)/preventive. It is filed as in vivo. The note with it: 500 ppm of active ingredient, preventive, evaluated 5 days after inoculation. The gist of the method: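 Young wheat plants sprayed preventively with active compound (DMA/emulsifier concentrate diluted in water) at the stated rate, then sandblast-wounded and inoculated with conidia. Held in greenhouse at ~10 °C, ~100% RH. Efficacy scored 5 days post-inoculation: 0% = untreated control, 100% = no disease.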

Data set [8] deals with Botrytis cinerea. As to the kind of experiment: Example A: in vivo preventive test on Botrytis cinerea (grey mould). The note with it: gherkin plants, preventive spray, evaluated 4 to 5 days after inoculation. Here is the method: The young plants of gherkin are treated by spraying the active ingredient prepared as described above. Control plants are treated only with an aqueous solution of acetone/Dimethyl sulfoxide/Tween®. After 24 hours, the plants are contaminated by spraying the leaves with an aqueous suspension of Botrytis cinerea spores.

Data set [9] deals with Phakopsora pachyrhizi. Nature of the data set: Example L: Phakopsora test (soybeans)/preventive. In kind it is in vivo. The conditions noted are these: 100 ppm of active ingredient, preventive, evaluated 7 days after inoculation.
Data set [10] deals with Uromyces appendiculatus. Nature of the data set: Example F: in vivo preventive test on Uromyces appendiculatus (bean rust). The note with it: bean plants, preventive spray, evaluated 11 days after inoculation. Here is the method:
The young plants of bean are treated by spraying the active ingredient prepared as described above. Control plants are treated only with an aqueous solution of acetone/Dimethyl sulfoxide/Tween®. After 24 hours, the plants are contaminated by spraying the leaves with an aqueous suspension of Uromyces appendiculatus spores.

Data set [11] concerns Pyrenophora teres. Nature of the data set: Example C: in vivo preventive test on Pyrenophora teres (net blotch on barley). The note with it: barley plants, preventive spray, evaluated 14 days after inoculation. The protocol:
The young plants of barley are treated by spraying the active ingredient prepared as described above. Control plants are treated only with an aqueous solution of acetone/Dimethyl sulfoxide/Tween®. After 24 hours, the plants are contaminated by spraying the leaves with an aqueous suspension of Pyrenophora teres spores.

In data set [12] the test system is Blumeria graminis f. sp. hordei. Nature of the data set: Example G: Blumeria test (barley)/preventive. In kind it is in vivo. The note with it: 500 ppm of active ingredient, preventive, evaluated 7 days after inoculation. The method in brief:
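Active compound formulated in N,N-dimethylacetamide with alkylaryl polyglycol ether emulsifier, diluted in water, and sprayed onto young barley plants at the stated application rate. Once the coating dried, plants were dusted with Blumeria graminis f. sp. hordei spores as a preventive test.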

Data set [13] relates to Septoria tritici. As to the kind of experiment: Example D: in vivo preventive test on Septoria tritici (leaf spot on wheat). The note with it: wheat plants, preventive spray, evaluated 24 days after inoculation. The protocol: The young plants of wheat are treated by spraying the active ingredient prepared as described above. Control plants are treated only with an aqueous solution of acetone/Dimethyl sulfoxide/Tween®. After 24 hours, the plants are contaminated by spraying the leaves with an aqueous suspension of Septoria tritici spores.

For data set [14], the system named is Pyricularia oryzae. In kind it is in vivo. The note with it: 500 ppm of active ingredient; rice, preventive; evaluated 8 days after inoculation.

For the compound `OC(Cc1c(Cl)cncc1Cl)(Cn1cncn1)C1(F)CC1` (racemic) [Example I-62], the Eff. % in data set [1] is 100%; in [2] it was 100%; in data set [3] (500 ppm of active ingredient), 98%; in [4], 83%; in [5] (500 ppm of active ingredient), 100%; in data set [6] it was 100%. Moreover, the Eff. % was 100% in data set [7]; 100% in data set [8] (500 ppm of active ingredient); 99% in data set [9]; 100% in [10] (500 ppm of active ingredient); 100% in data set [11] (500 ppm of active ingredient); 100% in data set [12]. In addition, in data set [13] (500 ppm of active ingredient), the Eff. % was determined as 100%. Besides, where the note is “pH 2.7”, the LogP is 1.86^[a].
Regarding `CC(CF)(CF)C(O)(Cc1ccncc1Cl)Cn1cncn1` (stereo not drawn) [Example I-6], the Eff. % in data set [14] amounted to 83%; in [1], 100%; in [2] it was 100%; in data set [3] (100 ppm of active ingredient) it was 81%; in data set [4], 100%; in data set [5] (100 ppm of active ingredient) it was 100%. Moreover, the Eff. % in data set [6] amounted to 100%; in [7], 100%; in data set [8] (100 ppm of active ingredient), 76%; in data set [9] it was 95%; in data set [10] (100 ppm of active ingredient) it was 100%; in [12], 100%. For the same compound, the Eff. % in data set [13] (100 ppm of active ingredient) came out at 100%. The LogP (pH 2.7) is 1.54^[a].
Turning to `CC1(C(O)(Cc2cccnc2Cl)Cn2cncn2)CC1` (stereo not drawn) [Example I-8], the Eff. % is reported as 100% in [14]; 92% in data set [1]; 100% in data set [2]; 94% in [3] (100 ppm of active ingredient); 100% in data set [4]; 100% in data set [5] (100 ppm of active ingredient). Besides, the Eff. % in data set [6] was 100%; in [7], 100%; in data set [8] (100 ppm of active ingredient), 87%; in data set [9], 95%; in data set [10] (100 ppm of active ingredient), 100%; in data set [12], 100%. In data set [13] (100 ppm of active ingredient), this compound gave an Eff. % of 94%. For the same compound, under “method [a]: LC-MS at pH 2.7, 0.1% formic acid in water / acetonitrile gradient”, the LogP is 1.73^[a].
Turning to `OC(Cc1cccnc1Cl)(Cn1cncn1)C1(F)CC1` (stereo not drawn) [Example I-25], the Eff. % in [1] was 100%; in data set [2], 89%; in data set [3] (100 ppm of active ingredient), 100%; in data set [4], 100%; in data set [5] (100 ppm of active ingredient), 100%; in data set [6], 100%. Further, the Eff. % came out at 100% in data set [7]; 99% in data set [8] (100 ppm of active ingredient); 99% in [9]; 100% in [10] (100 ppm of active ingredient); 97% in [11] (100 ppm of active ingredient); 100% in data set [12]. This compound also came in with an Eff. % in data set [13] (100 ppm of active ingredient) of 100%. For the same compound, the LogP (pH 2.7) was 1.42^[a].
On to `CC1(C(O)(Cc2ccncc2Cl)Cn2cncn2)CC1` (stereo not drawn) [Example I-49], for which the Eff. % in data set [1], in data set [2], in data set [3] (500 ppm of active ingredient), in [4], in [5] (500 ppm of active ingredient) and in [6] was 100% in each case. Also, the Eff. % in data set [7] was determined as 100%; in [8] (500 ppm of active ingredient), 99%; in data set [9], 96%; in data set [10] (500 ppm of active ingredient), 81%; in data set [11] (500 ppm of active ingredient), 93%; in data set [12], 100%. In [13] (500 ppm of active ingredient), this compound came in with an Eff. % of 100%. Besides, the LogP (pH 2.7) is 1.57^[a].
Consider `OC(Cc1ccnc(Cl)c1F)(Cn1cncn1)C1(Cl)CC1` (stereo not drawn) [Example I-60], for which the Eff. % stood at 100% in data set [1]; 100% in data set [2]; 98% in [3] (500 ppm of active ingredient); 83% in [4]; 100% in data set [5] (500 ppm of active ingredient); 100% in data set [6]. The Eff. % in data set [7], in data set [8] (500 ppm of active ingredient), in data set [9], in data set [10] (500 ppm of active ingredient), in data set [11] (500 ppm of active ingredient) and in [12] was 100% each time. In data set [13] (500 ppm of active ingredient), the Eff. % turned out to be 97%. Also, the LogP (pH 2.7) was 2.02^[a].

(Values after US9822099B2, “Triazole derivatives” (priority 2013, dated 2017).)
